In publication PMC12749626, “Expediting hit-to-lead progression in drug discovery through reaction prediction and multi-dimensional optimization” (Nature Communications, 2025):

How the values were obtained:
[1] = target: GSK-3A (Homo sapiens, UniProt P49840); test: biochemical; conditions: read-out: GSK-3A percent activity or inhibition compared to the assay reference
[2] = target: CYP3A4 (Homo sapiens, UniProt P08684); test: Cytochrome P450 inhibition assay, CYP3A4; conditions: liver microsomes
[3] = target: CYCLO OXYGENASE 2 (Homo sapiens, UniProt P35354); test: biochemical; conditions: read-out: CYCLO OXYGENASE 2 percent activity or inhibition compared to the assay reference
[4] = target: ADENOSINE A1 REC. (Homo sapiens, UniProt P30542); test: biochemical; conditions: read-out: ADENOSINE A1 REC. percent activity or inhibition compared to the assay reference
[5] = Hepatocyte clearance; conditions: for hepatocyte CLint at 1 µM: human, hepatocytes
[6] = target: PPARγ (Homo sapiens, UniProt P37231); test: biochemical; conditions: read-out: PPARγ percent activity or inhibition compared to the assay reference
[7] = target: GLUC[…]. (Homo sapiens, UniProt P04150); test: biochemical; conditions: read-out: GLUC[…]. percent activity or inhibition compared to the assay reference
[8] = target: HISTAMINE H2 REC. (Homo sapiens, UniProt P25021); test: biochemical; conditions: read-out: HISTAMINE H2 REC. percent activity or inhibition compared to the assay reference
[9] = target: ABCB1 (MDR1, human P-gp) (Homo sapiens, UniProt P08183); test: P-glycoprotein (P-gp) assay in LLC-PK1 cells transfected with ABCB1; conditions: for Papp A→B: human, LLC-PK1
ABCB1 (MDR1, human P-gp), sequence (P08183 whole entry): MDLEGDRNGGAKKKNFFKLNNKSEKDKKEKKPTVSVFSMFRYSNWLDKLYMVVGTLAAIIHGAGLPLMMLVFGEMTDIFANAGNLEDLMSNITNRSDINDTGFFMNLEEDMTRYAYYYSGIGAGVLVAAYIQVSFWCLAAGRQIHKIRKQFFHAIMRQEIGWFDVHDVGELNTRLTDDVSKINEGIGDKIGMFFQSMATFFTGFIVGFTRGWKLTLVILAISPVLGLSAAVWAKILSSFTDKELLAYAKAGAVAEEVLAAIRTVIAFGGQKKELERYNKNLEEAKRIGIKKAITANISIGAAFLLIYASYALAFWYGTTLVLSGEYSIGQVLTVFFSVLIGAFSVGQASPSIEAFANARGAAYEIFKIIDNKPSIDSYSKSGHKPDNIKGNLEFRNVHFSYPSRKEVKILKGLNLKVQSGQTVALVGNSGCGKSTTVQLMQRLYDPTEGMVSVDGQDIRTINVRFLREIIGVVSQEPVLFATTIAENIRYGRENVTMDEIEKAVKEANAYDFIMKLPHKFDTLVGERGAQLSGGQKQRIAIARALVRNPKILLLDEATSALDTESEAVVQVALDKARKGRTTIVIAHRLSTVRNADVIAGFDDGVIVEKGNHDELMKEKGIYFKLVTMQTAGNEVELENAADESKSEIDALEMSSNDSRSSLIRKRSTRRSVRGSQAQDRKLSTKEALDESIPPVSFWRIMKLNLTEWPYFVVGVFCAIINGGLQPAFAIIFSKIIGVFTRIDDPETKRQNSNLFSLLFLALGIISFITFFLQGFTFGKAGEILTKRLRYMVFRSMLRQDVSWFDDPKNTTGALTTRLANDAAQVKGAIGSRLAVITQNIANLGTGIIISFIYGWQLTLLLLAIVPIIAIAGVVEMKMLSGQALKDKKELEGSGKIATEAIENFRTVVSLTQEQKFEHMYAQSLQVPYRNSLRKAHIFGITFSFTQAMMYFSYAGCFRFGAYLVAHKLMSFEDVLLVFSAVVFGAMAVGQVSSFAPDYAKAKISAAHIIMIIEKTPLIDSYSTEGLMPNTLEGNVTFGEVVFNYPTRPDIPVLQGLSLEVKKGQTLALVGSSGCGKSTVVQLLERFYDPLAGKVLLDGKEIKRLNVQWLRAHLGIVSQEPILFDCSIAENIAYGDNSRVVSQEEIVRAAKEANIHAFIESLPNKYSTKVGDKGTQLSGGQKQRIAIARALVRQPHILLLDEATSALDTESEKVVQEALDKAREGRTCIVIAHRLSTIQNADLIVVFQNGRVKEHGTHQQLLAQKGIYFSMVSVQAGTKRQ

[10] = target: ADENOSINE A3 REC. (Homo sapiens, UniProt P0DMS8); test: biochemical; conditions: read-out: ADENOSINE A3 REC. percent activity or inhibition compared to the assay reference
[11] = target: ESTROGEN REC. α (Homo sapiens, UniProt P03372); test: biochemical; conditions: read-out: ESTROGEN REC. α percent activity or inhibition compared to the assay reference
ESTROGEN REC. α, sequence (P03372 whole entry): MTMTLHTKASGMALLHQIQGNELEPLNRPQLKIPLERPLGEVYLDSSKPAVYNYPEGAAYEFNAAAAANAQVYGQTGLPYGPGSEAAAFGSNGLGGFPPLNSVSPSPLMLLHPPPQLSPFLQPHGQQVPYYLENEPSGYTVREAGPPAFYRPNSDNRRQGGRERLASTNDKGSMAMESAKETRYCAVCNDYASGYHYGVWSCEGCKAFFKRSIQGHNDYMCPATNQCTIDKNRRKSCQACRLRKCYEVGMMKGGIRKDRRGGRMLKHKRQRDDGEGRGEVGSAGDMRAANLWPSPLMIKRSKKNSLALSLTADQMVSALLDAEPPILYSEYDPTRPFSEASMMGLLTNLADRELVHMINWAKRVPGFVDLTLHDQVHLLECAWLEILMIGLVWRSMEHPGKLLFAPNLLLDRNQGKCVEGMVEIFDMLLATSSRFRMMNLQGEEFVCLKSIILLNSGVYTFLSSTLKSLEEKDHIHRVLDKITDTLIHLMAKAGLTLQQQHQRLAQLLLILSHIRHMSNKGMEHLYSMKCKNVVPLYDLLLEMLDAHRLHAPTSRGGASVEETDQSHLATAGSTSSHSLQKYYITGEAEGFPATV

[12] = target: HISTAMINE H3 REC. (Homo sapiens, UniProt Q9Y5N1); test: biochemical; conditions: read-out: HISTAMINE H3 REC. percent activity or inhibition compared to the assay reference
HISTAMINE H3 REC., sequence (Q9Y5N1 whole entry): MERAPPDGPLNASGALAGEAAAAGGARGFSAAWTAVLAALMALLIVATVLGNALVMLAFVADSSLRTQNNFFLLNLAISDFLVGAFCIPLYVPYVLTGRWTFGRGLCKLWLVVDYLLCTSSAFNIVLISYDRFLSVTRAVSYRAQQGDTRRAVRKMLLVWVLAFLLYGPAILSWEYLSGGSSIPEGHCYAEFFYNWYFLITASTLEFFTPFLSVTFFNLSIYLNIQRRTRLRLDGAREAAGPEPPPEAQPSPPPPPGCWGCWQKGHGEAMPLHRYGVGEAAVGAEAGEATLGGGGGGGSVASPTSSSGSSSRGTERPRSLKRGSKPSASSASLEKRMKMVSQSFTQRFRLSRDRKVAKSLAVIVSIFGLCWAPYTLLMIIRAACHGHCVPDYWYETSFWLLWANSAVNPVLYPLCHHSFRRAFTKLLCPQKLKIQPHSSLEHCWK

[13] = target: ANDROGEN REC. (Homo sapiens, UniProt P10275); test: biochemical; conditions: read-out: ANDROGEN REC. percent activity or inhibition compared to the assay reference
[14] = target: κ OPIOID REC. (Homo sapiens, UniProt P41145); test: biochemical; conditions: read-out: κ OPIOID REC. percent activity or inhibition compared to the assay reference
κ OPIOID REC., sequence (P41145 whole entry): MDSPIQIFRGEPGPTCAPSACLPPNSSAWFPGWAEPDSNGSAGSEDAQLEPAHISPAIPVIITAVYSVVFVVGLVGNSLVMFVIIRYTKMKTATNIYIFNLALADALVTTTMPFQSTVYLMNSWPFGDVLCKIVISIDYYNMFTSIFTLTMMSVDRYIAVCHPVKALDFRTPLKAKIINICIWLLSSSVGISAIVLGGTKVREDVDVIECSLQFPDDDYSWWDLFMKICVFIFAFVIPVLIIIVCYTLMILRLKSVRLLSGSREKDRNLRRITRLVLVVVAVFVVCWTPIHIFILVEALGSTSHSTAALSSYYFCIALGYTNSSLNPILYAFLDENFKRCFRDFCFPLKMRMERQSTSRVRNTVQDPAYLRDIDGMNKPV

[15] = target: CYP2D6 (Homo sapiens, UniProt P10635); test: Cytochrome P450 inhibition assay, CYP2D6; conditions: liver microsomes
CYP2D6, sequence (P10635 whole entry): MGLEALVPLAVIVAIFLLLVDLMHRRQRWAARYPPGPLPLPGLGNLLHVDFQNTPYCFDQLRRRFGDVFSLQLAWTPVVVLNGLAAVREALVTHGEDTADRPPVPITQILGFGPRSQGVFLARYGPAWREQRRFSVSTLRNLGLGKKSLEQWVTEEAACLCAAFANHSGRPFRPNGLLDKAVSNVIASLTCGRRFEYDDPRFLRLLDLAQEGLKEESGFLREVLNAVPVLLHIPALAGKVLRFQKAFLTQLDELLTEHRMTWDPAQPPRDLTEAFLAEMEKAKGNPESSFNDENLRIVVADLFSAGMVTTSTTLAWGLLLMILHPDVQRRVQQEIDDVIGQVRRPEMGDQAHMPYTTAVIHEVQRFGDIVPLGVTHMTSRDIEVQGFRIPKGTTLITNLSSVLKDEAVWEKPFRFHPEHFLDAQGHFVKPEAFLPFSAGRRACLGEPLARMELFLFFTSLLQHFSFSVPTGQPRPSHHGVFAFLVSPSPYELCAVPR

[16] = target: C[…]. CB1 (Homo sapiens, UniProt P21554); test: biochemical; conditions: read-out: C[…]. CB1 percent activity or inhibition compared to the assay reference
[17] = target: 5HT2B (Homo sapiens, UniProt P41595); test: biochemical; conditions: read-out: 5HT2B percent activity or inhibition compared to the assay reference
[18] = target: […]. M2 (Homo sapiens, UniProt P08172); test: biochemical; conditions: read-out: […]. M2 percent activity or inhibition compared to the assay reference
[…]. M2, sequence (P08172 whole entry): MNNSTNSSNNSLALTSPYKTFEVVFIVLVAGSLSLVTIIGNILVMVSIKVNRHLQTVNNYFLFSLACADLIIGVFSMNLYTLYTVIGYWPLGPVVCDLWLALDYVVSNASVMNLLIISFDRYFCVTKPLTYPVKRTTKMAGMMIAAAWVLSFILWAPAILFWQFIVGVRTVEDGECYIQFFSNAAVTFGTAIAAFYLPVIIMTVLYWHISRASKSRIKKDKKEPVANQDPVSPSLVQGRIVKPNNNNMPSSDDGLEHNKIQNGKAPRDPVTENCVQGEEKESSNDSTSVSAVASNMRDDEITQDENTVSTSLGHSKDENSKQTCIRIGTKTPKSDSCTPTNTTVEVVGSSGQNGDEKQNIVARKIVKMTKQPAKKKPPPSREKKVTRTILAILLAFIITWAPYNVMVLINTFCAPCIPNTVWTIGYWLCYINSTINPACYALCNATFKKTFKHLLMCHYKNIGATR

[19] = target: μ OPIOID REC. (Homo sapiens, UniProt P35372); test: biochemical; conditions: read-out: μ OPIOID REC. percent activity or inhibition compared to the assay reference
[20] = target: CDK2 (Homo sapiens, UniProt P24941); test: biochemical; conditions: read-out: CDK2 percent activity or inhibition compared to the assay reference
[21] = target: 5HT3 (Homo sapiens, UniProt P46098); test: biochemical; conditions: read-out: 5HT3 percent activity or inhibition compared to the assay reference
[22] = target: DOPAMINE D2 REC. (short) (Homo sapiens, UniProt P14416); test: biochemical; conditions: read-out: DOPAMINE D2 REC. (short) percent activity or inhibition compared to the assay reference
[23] = target: […]. M1 (Homo sapiens, UniProt P11229); test: biochemical; conditions: read-out: […]. M1 percent activity or inhibition compared to the assay reference
[24] = target: XANTHINE OXIDASE (Bos taurus, UniProt P80457); test: biochemical; conditions: read-out: XANTHINE OXIDASE percent activity or inhibition compared to the assay reference
XANTHINE OXIDASE, sequence (P80457 2-1332): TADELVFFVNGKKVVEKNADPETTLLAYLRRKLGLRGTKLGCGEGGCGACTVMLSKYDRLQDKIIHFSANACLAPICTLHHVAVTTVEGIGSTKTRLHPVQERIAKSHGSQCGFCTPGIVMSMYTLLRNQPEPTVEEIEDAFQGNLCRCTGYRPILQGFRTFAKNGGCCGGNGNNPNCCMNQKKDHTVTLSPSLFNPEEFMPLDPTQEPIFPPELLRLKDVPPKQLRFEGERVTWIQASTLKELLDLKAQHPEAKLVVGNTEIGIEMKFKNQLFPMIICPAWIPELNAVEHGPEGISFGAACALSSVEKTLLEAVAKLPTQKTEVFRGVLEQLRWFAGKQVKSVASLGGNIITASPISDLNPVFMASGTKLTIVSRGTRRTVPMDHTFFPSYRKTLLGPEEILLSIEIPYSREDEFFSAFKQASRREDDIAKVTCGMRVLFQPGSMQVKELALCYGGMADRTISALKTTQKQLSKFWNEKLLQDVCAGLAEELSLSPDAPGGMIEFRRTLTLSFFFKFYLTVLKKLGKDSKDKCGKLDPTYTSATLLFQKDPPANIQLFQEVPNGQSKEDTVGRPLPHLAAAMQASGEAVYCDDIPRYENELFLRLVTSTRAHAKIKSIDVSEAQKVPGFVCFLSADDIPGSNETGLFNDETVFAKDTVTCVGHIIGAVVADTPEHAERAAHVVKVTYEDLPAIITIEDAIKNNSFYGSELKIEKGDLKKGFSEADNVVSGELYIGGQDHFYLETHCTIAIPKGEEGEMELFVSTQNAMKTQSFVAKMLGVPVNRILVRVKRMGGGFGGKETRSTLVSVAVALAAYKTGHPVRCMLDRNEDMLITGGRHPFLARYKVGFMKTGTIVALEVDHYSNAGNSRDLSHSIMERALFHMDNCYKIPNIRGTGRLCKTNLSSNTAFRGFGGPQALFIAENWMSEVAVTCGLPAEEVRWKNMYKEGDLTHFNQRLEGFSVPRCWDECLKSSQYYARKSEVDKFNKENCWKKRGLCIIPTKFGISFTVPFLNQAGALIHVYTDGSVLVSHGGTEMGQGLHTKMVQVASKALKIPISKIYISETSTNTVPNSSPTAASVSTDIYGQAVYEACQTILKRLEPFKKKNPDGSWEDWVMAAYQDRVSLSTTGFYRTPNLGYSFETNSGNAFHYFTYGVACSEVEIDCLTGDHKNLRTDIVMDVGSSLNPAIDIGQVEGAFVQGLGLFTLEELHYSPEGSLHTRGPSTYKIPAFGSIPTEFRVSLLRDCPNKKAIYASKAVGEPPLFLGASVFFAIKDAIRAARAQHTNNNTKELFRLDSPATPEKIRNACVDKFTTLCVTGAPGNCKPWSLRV

[25] = target: DOPAMINE D1 REC. (Homo sapiens, UniProt P21728); test: biochemical; conditions: read-out: DOPAMINE D1 REC. percent activity or inhibition compared to the assay reference
[26] = target: NORE[…]. (Homo sapiens, UniProt P23975); test: biochemical; conditions: read-out: NORE[…]. percent activity or inhibition compared to the assay reference
[27] = system: CA2+ CHANNEL (L-TYPE); conditions: 10 uM; n=2
[28] = system: PCP NMDA REC.; conditions: 10 uM; n=2
[29] = system: GABA-A (BENZ[…]); conditions: 10 uM; n=2
[30] = system: GABA-A; conditions: 10 uM; n=2

O=C(c1ccc2nc(-c3cccnc3)oc2c1)N1CCN(c2nc3ccccc3c(=O)[nH]2)CC1 [Compound 17]
inhibition at 10 µM [1]: 8%
CYP3A4 Inhibition [2]: 16%
inhibition at 10 µM [3]: 20%
inhibition at 10 µM [4]: 70%
hepatocyte CLint at 1 µM [5]: 7.3 µL/min/1e6 cells
inhibition at 10 µM [6]: -4%
inhibition at 10 µM [7]: -13%
inhibition at 10 µM [8]: 1%
Papp A→B [9]: 11.7 ×10⁻⁶ cm/s
inhibition at 10 µM [10]: 13%
inhibition at 10 µM [11]: 0%
inhibition at 10 µM [12]: 14%
inhibition at 10 µM [13]: 6%
inhibition at 10 µM [14]: 15%
CYP2D6 Inhibition [15]: -24%
inhibition at 10 µM [16]: 2%
inhibition at 10 µM [17]: 28%
inhibition at 10 µM [18]: 27%
inhibition at 10 µM [19]: 48%
inhibition at 10 µM [20]: 3%
inhibition at 10 µM [21]: 0%
inhibition at 10 µM [22]: -10%
inhibition at 10 µM [23]: 9%
inhibition at 10 µM [24]: 2%
inhibition at 10 µM [25]: 3%
inhibition at 10 µM [26]: 15%

O=C(c1ccc2nc(-c3cnccc3C3CCCC3)oc2c1)N1CCN(c2nc3nc(Cl)ccc3o2)CC1 [Compound 23]
inhibition at 10 µM [1]: 1%
CYP3A4 Inhibition [2]: > 90%
CA2+ CHANNEL (L-TYPE) percent activity or inhibition compared to the assay reference [27]: 73%
inhibition at 10 µM [3]: 4%
inhibition at 10 µM [4]: 24%
PCP NMDA REC. percent activity or inhibition compared to the assay reference [28]: 7%
hepatocyte CLint at 1 µM [5]: 179 µL/min/1e6 cells
inhibition at 10 µM [6]: 7%
inhibition at 10 µM [7]: -2%
inhibition at 10 µM [8]: -1%
Papp A→B [9]: 8.9 ×10⁻⁶ cm/s
inhibition at 10 µM [10]: 21%
inhibition at 10 µM [11]: 5%
inhibition at 10 µM [12]: 4%
inhibition at 10 µM [13]: -10%
inhibition at 10 µM [14]: 18%
CYP2D6 Inhibition [15]: 38%
inhibition at 10 µM [16]: 2%
inhibition at 10 µM [17]: 3%
inhibition at 10 µM [18]: 40%
GABA-A (BENZ[…]) percent activity or inhibition compared to the assay reference [29]: 10%
inhibition at 10 µM [19]: 21%
inhibition at 10 µM [20]: 8%
inhibition at 10 µM [21]: -6%
inhibition at 10 µM [22]: -15%
inhibition at 10 µM [23]: 10%
inhibition at 10 µM [24]: 6%
GABA-A percent activity or inhibition compared to the assay reference [30]: 16%
inhibition at 10 µM [25]: -1%
inhibition at 10 µM [26]: 15%

O=C(c1ccc2nc(-c3cnccc3C3(C4CCC4)CC3)oc2c1)N1CCN(c2nc3nc(Cl)ccc3o2)CC1 [Compound 27]
CYP3A4 Inhibition [2]: > 90%
CA2+ CHANNEL (L-TYPE) percent activity or inhibition compared to the assay reference [27]: 90%
PCP NMDA REC. percent activity or inhibition compared to the assay reference [28]: 8%
Hepatocyte clearance ([5]; cryopreserved hepatocytes of human origin, 1 µM compound): 101.0 µL/min/10^6 cells
P-gp ([9]; apparent permeability, apical-to-basolateral, LLC-PK1 cells with human P-gp): 7.1 ×10⁻⁶ cm/s
CYP2D6 Inhibition [15]: 79%
GABA-A (BENZ[…]) percent activity or inhibition compared to the assay reference [29]: 9%
GABA-A percent activity or inhibition compared to the assay reference [30]: 69%

O=C(c1ccc2nc(-c3cnccc3C3CCCC3)oc2c1)N1CC2(CC(n3cnc(C4CC4)n3)C2)C1 [Compound 29]
inhibition at 10 µM [1]: 16%
CYP3A4 Inhibition [2]: 84%
CA2+ CHANNEL (L-TYPE) percent activity or inhibition compared to the assay reference [27]: 32%
inhibition at 10 µM [3]: 23%
inhibition at 10 µM [4]: 9%
PCP NMDA REC. percent activity or inhibition compared to the assay reference [28]: -1%
hepatocyte CLint at 1 µM [5]: 181 µL/min/1e6 cells
inhibition at 10 µM [6]: 16%
inhibition at 10 µM [7]: -6%
inhibition at 10 µM [8]: 11%
Papp A→B [9]: 13.2 ×10⁻⁶ cm/s
inhibition at 10 µM [10]: 28%
inhibition at 10 µM [11]: -3%
inhibition at 10 µM [12]: 12%
inhibition at 10 µM [13]: 7%
inhibition at 10 µM [14]: 32%
CYP2D6 Inhibition [15]: 34%
inhibition at 10 µM [16]: 9%
inhibition at 10 µM [17]: 55%
inhibition at 10 µM [18]: 33%
GABA-A (BENZ[…]) percent activity or inhibition compared to the assay reference [29]: -1%
inhibition at 10 µM [19]: 30%
inhibition at 10 µM [20]: -6%
inhibition at 10 µM [21]: -2%
inhibition at 10 µM [22]: 4%
inhibition at 10 µM [23]: 8%
inhibition at 10 µM [24]: 3%
GABA-A percent activity or inhibition compared to the assay reference [30]: 61%
inhibition at 10 µM [25]: 7%
inhibition at 10 µM [26]: 22%
